Laboratory results as given in the supplement of paper PMC10307832.

Legend:
Assay in all cases: relative viability (nuclei count vs DMSO), 5 days (fraction); higher = more cells survive
201T = tested on: 201T
Summary of the method: (§1)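 Relative viability equals treated-well nuclei counts divided by vehicle-well nuclei counts. Counts came from 4× images of lung cancer cell lines grown in 1536-well plates for 5 days after pin-tool dosing on the day after seeding. Dosing used one drug alone or a fixed anchor-drug dose plus five library-drug doses (not always all listed) in √10 steps, and values are medians of duplicate plates.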

BEN = tested on: BEN
Summary of the method: as §1

EMC-BAC-2 = tested on: EMC-BAC-2
Summary of the method: as §1

HARA = tested on: HARA
Summary of the method: as §1

HCC-44 = tested on: HCC-44
Summary of the method: as §1

LCLC-103H = tested on: LCLC-103H
Summary of the method: as §1

LOU-NH91 = tested on: LOU-NH91
Summary of the method: as §1

NCI-H1395 = tested on: NCI-H1395
Summary of the method: as §1

NCI-H1993 = tested on: NCI-H1993
Summary of the method: as §1

NCI-H2023 = tested on: NCI-H2023
Summary of the method: as §1

NCI-H2087 = tested on: NCI-H2087
Summary of the method: as §1

NCI-H2126 = tested on: NCI-H2126
Summary of the method: as §1

NCI-H2347 = tested on: NCI-H2347
Summary of the method: as §1

NCI-H23 = tested on: NCI-H23
Summary of the method: as §1

NCI-H3122 = tested on: NCI-H3122
Summary of the method: as §1

NCI-H441 = tested on: NCI-H441
Summary of the method: as §1

NCI-H596 = tested on: NCI-H596
Summary of the method: as §1

NCI-H647 = tested on: NCI-H647
Summary of the method: as §1

NCI-H650 = tested on: NCI-H650
Summary of the method: as §1

NCI-H727 = tested on: NCI-H727
Summary of the method: as §1

NCI-H838 = tested on: NCI-H838
Summary of the method: as §1

`Nc1ccn([C@@H]2O[C@H](CO)[C@@H](O)[C@@H]2O)c(=O)n1` [Cytarabine] + CS(=O)(=O)N1CCN(Cc2cc3nc(-c4cccc5[nH]ncc45)nc(N4CCOCC4)c3s2)CC1 [Pictilisib] (partner 1 µM) was tested. Which relative viability (201T; first compound 0.005 µM) did it give?
The relative viability was 0.655.

And the relative viability (201T; first compound 0.01581 µM)?
The relative viability was 0.707.

And the relative viability (201T; first compound 0.05 µM)?
The relative viability was 0.738.

And the relative viability (201T; first compound 0.1581 µM)?
The relative viability was 0.576.

What about the relative viability (201T; first compound 0.5 µM) of the same compound?
The relative viability was 0.416.

What about the relative viability (BEN; first compound 0.005 µM) of the same compound?
The relative viability was 0.571.

And the relative viability (BEN; first compound 0.01581 µM)?
Its relative viability is 0.504.

What about the relative viability (BEN; first compound 0.05 µM) of the same compound?
Its relative viability is 0.413.

What about the relative viability (BEN; first compound 0.1581 µM) of the same compound?
The relative viability was 0.279.

And the relative viability (BEN; first compound 0.5 µM)?
The relative viability was 0.195.

What about the relative viability (EMC-BAC-2; first compound 0.005 µM) of the same compound?
Its relative viability is 0.42.

What about the relative viability (EMC-BAC-2; first compound 0.01581 µM) of the same compound?
The relative viability was 0.494.

And the relative viability (EMC-BAC-2; first compound 0.05 µM)?
The relative viability was 0.366.

What about the relative viability (EMC-BAC-2; first compound 0.1581 µM) of the same compound?
Its relative viability is 0.246.

What about the relative viability (EMC-BAC-2; first compound 0.5 µM) of the same compound?
Its relative viability is 0.165.

What about the relative viability (HARA; first compound 0.005 µM) of the same compound?
Its relative viability is 0.316.

And the relative viability (HARA; first compound 0.01581 µM)?
Its relative viability is 0.368.

What about the relative viability (HARA; first compound 0.05 µM) of the same compound?
The relative viability was 0.163.

What about the relative viability (HARA; first compound 0.1581 µM) of the same compound?
Its relative viability is 0.106.

What about the relative viability (HARA; first compound 0.5 µM) of the same compound?
Its relative viability is 0.117.

What about the relative viability (HCC-44; first compound 0.005 µM) of the same compound?
The relative viability was 0.492.

What about the relative viability (HCC-44; first compound 0.01581 µM) of the same compound?
Its relative viability is 0.599.

And the relative viability (HCC-44; first compound 0.05 µM)?
Its relative viability is 0.5.

And the relative viability (HCC-44; first compound 0.1581 µM)?
The relative viability was 0.349.

What about the relative viability (HCC-44; first compound 0.5 µM) of the same compound?
Its relative viability is 0.385.

And the relative viability (LCLC-103H; first compound 0.005 µM)?
The relative viability was 0.614.

What about the relative viability (LCLC-103H; first compound 0.01581 µM) of the same compound?
Its relative viability is 0.624.

What about the relative viability (LCLC-103H; first compound 0.05 µM) of the same compound?
Its relative viability is 0.565.

And the relative viability (LCLC-103H; first compound 0.1581 µM)?
The relative viability was 0.513.

And the relative viability (LCLC-103H; first compound 0.5 µM)?
The relative viability was 0.617.

What about the relative viability (LOU-NH91; first compound 0.005 µM) of the same compound?
The relative viability was 0.525.

And the relative viability (LOU-NH91; first compound 0.01581 µM)?
Its relative viability is 0.56.

What about the relative viability (LOU-NH91; first compound 0.05 µM) of the same compound?
The relative viability was 0.489.

And the relative viability (LOU-NH91; first compound 0.1581 µM)?
The relative viability was 0.385.

What about the relative viability (LOU-NH91; first compound 0.5 µM) of the same compound?
The relative viability was 0.369.

What about the relative viability (NCI-H1395; first compound 0.005 µM) of the same compound?
The relative viability was 0.616.

And the relative viability (NCI-H1395; first compound 0.01581 µM)?
Its relative viability is 0.564.

And the relative viability (NCI-H1395; first compound 0.05 µM)?
Its relative viability is 0.391.

What about the relative viability (NCI-H1395; first compound 0.1581 µM) of the same compound?
The relative viability was 0.365.

What about the relative viability (NCI-H1395; first compound 0.5 µM) of the same compound?
Its relative viability is 0.316.

And the relative viability (NCI-H1993; first compound 0.005 µM)?
The relative viability was 0.84.

What about the relative viability (NCI-H1993; first compound 0.01581 µM) of the same compound?
Its relative viability is 0.815.

What about the relative viability (NCI-H1993; first compound 0.05 µM) of the same compound?
The relative viability was 0.765.

What about the relative viability (NCI-H1993; first compound 0.1581 µM) of the same compound?
Its relative viability is 0.712.

And the relative viability (NCI-H1993; first compound 0.5 µM)?
The relative viability was 0.525.

What about the relative viability (NCI-H2023; first compound 0.005 µM) of the same compound?
Its relative viability is 0.193.

And the relative viability (NCI-H2023; first compound 0.01581 µM)?
Its relative viability is 0.137.

And the relative viability (NCI-H2023; first compound 0.05 µM)?
The relative viability was 0.112.

And the relative viability (NCI-H2023; first compound 0.1581 µM)?
Its relative viability is 0.0708.

And the relative viability (NCI-H2023; first compound 0.5 µM)?
Its relative viability is 0.0698.

What about the relative viability (NCI-H2087; first compound 0.005 µM) of the same compound?
Its relative viability is 0.804.

What about the relative viability (NCI-H2087; first compound 0.01581 µM) of the same compound?
Its relative viability is 0.751.

And the relative viability (NCI-H2087; first compound 0.05 µM)?
The relative viability was 0.805.

And the relative viability (NCI-H2087; first compound 0.1581 µM)?
Its relative viability is 0.461.

And the relative viability (NCI-H2087; first compound 0.5 µM)?
The relative viability was 0.355.

And the relative viability (NCI-H2126; first compound 0.005 µM)?
The relative viability was 0.441.

And the relative viability (NCI-H2126; first compound 0.01581 µM)?
The relative viability was 0.432.

What about the relative viability (NCI-H2126; first compound 0.05 µM) of the same compound?
The relative viability was 0.382.

And the relative viability (NCI-H2126; first compound 0.1581 µM)?
Its relative viability is 0.312.

What about the relative viability (NCI-H2126; first compound 0.5 µM) of the same compound?
The relative viability was 0.29.

And the relative viability (NCI-H2347; first compound 0.005 µM)?
The relative viability was 0.536.

What about the relative viability (NCI-H2347; first compound 0.01581 µM) of the same compound?
Its relative viability is 0.811.

What about the relative viability (NCI-H2347; first compound 0.05 µM) of the same compound?
The relative viability was 0.778.

What about the relative viability (NCI-H2347; first compound 0.1581 µM) of the same compound?
Its relative viability is 0.482.

What about the relative viability (NCI-H2347; first compound 0.5 µM) of the same compound?
The relative viability was 0.588.

What about the relative viability (NCI-H23; first compound 0.005 µM) of the same compound?
Its relative viability is 0.527.

And the relative viability (NCI-H23; first compound 0.01581 µM)?
Its relative viability is 0.346.

And the relative viability (NCI-H23; first compound 0.05 µM)?
The relative viability was 0.327.

And the relative viability (NCI-H23; first compound 0.1581 µM)?
Its relative viability is 0.156.

And the relative viability (NCI-H23; first compound 0.5 µM)?
The relative viability was 0.138.

What about the relative viability (NCI-H3122; first compound 0.005 µM) of the same compound?
Its relative viability is 0.629.

And the relative viability (NCI-H3122; first compound 0.01581 µM)?
The relative viability was 0.494.

What about the relative viability (NCI-H3122; first compound 0.05 µM) of the same compound?
The relative viability was 0.61.

And the relative viability (NCI-H3122; first compound 0.1581 µM)?
Its relative viability is 0.329.

What about the relative viability (NCI-H3122; first compound 0.5 µM) of the same compound?
The relative viability was 0.204.

What about the relative viability (NCI-H441; first compound 0.005 µM) of the same compound?
Its relative viability is 0.481.

What about the relative viability (NCI-H441; first compound 0.01581 µM) of the same compound?
The relative viability was 0.443.

What about the relative viability (NCI-H441; first compound 0.05 µM) of the same compound?
The relative viability was 0.411.

And the relative viability (NCI-H441; first compound 0.1581 µM)?
The relative viability was 0.205.

And the relative viability (NCI-H441; first compound 0.5 µM)?
The relative viability was 0.223.

And the relative viability (NCI-H596; first compound 0.005 µM)?
The relative viability was 0.432.

What about the relative viability (NCI-H596; first compound 0.01581 µM) of the same compound?
Its relative viability is 0.396.

And the relative viability (NCI-H596; first compound 0.05 µM)?
Its relative viability is 0.355.

And the relative viability (NCI-H596; first compound 0.1581 µM)?
Its relative viability is 0.277.

And the relative viability (NCI-H596; first compound 0.5 µM)?
The relative viability was 0.315.

What about the relative viability (NCI-H647; first compound 0.005 µM) of the same compound?
Its relative viability is 0.39.

And the relative viability (NCI-H647; first compound 0.01581 µM)?
The relative viability was 0.212.

And the relative viability (NCI-H647; first compound 0.05 µM)?
Its relative viability is 0.159.

And the relative viability (NCI-H647; first compound 0.1581 µM)?
The relative viability was 0.0808.

What about the relative viability (NCI-H647; first compound 0.5 µM) of the same compound?
Its relative viability is 0.0843.

What about the relative viability (NCI-H650; first compound 0.005 µM) of the same compound?
The relative viability was 0.831.

What about the relative viability (NCI-H650; first compound 0.01581 µM) of the same compound?
Its relative viability is 0.688.

What about the relative viability (NCI-H650; first compound 0.05 µM) of the same compound?
Its relative viability is 0.419.

What about the relative viability (NCI-H650; first compound 0.1581 µM) of the same compound?
The relative viability was 0.224.

And the relative viability (NCI-H650; first compound 0.5 µM)?
The relative viability was 0.214.

What about the relative viability (NCI-H727; first compound 0.005 µM) of the same compound?
Its relative viability is 0.45.

What about the relative viability (NCI-H727; first compound 0.01581 µM) of the same compound?
The relative viability was 0.237.

What about the relative viability (NCI-H727; first compound 0.05 µM) of the same compound?
Its relative viability is 0.211.

What about the relative viability (NCI-H727; first compound 0.1581 µM) of the same compound?
Its relative viability is 0.222.

And the relative viability (NCI-H727; first compound 0.5 µM)?
The relative viability was 0.203.

And the relative viability (NCI-H838; first compound 0.005 µM)?
The relative viability was 0.334.

And the relative viability (NCI-H838; first compound 0.01581 µM)?
Its relative viability is 0.495.

And the relative viability (NCI-H838; first compound 0.05 µM)?
The relative viability was 0.435.

And the relative viability (NCI-H838; first compound 0.1581 µM)?
The relative viability was 0.257.

And the relative viability (NCI-H838; first compound 0.5 µM)?
The relative viability was 0.243.
